Measured values reported in patent US8487072B2, “Compounds for stimulating P-glycoprotein function and uses thereof” (Angiochem Inc., priority 2006, dated 2013).
Like-named read-outs stand apart in the source and are kept apart here.

Key:
P-gp [1] = experiment: Brain uptake of [3H]-Taxol in vivo (P-gp efflux transport at the blood brain barrier); parameters: species or system mice; conditions: peptide 20 μg/ml; for reduction of [3H]-Taxol in the capillaries and in the parenchyma relative to total brain: [3H]-Taxol perfused 5 minutes; for reduction of Taxol passage in the total brain vs control mice: [3H]-Taxol perfused through right jugular vein for 5 minutes, total brain (FIG. 2)
Description: The effect of compounds on P-gp efflux transport activity was investigated in vivo. For this purpose, the brain uptake of [^3H]-Taxol, a specific substrate of P-gp, was measured. [^3H]-Taxol was perfused into the brain through the right jugular vein for 5 minutes in the presence or absence of pepCav or pepPgp at a concentration of 20 μg/ml. Radioactivity of [^3H]-Taxol was analyzed in the total brain, the capillary and the parenchyma.

MDCK-MDR1 cells = experiment: Cell migration of MDCK-MDR1 cells, Transwell filters; assay type: cell-based, canine; conditions: 20 μg/ml, Transwell 8 μm precoated with 0.15% gelatin, 10% serum as chemoattractant (FIGS. 3A, 3B)
Description: The effect of both compounds on cell migration, was determined by the migration of MDCK-MDR1 cells using Transwell filters (Costar; 8 μm pore size) precoated with 0.15% gelatin. Briefly, 1×10^5 cells were resuspended in 100 μl of serum-free medium with or without compounds (20 μg/ml). The lower chamber of the Transwell contained 10% serum used as chemoattractant. Cell migration was determined using a Nikon TMS-F microscope and Northern Eclipse Software. As observed in FIGS. 3A and 3B, pepPgp and pepCav inhibited cells migration of MDCK-MDR1 by 30% and 80%, respectively, as compared to the control.

[2] = system: human umbilical vein endothelial cells (HUVEC); experiment: HUVEC tube formation on Matrigel (angiogenesis in vitro); assay type: cell-based; conditions: 40 μg/ml, 18 hours (FIG. 4A)
Description: The effect of these compounds on angiogenesis was evaluated in vitro using human umbilical vein endothelial cells (HUVEC) tube formation on Matrigel. Following transfections, cells were trypsinized and 2.5×10^4 cells were seeded on Matrigel. After cellular adhesion, the medium was removed and 100 μl fresh medium was added with or without 40 μg/ml of either pepCav or pepPgp. Tube formation was evaluated after 18 hours. After incubation, tubular structures were visualized at 60× magnification using a Nikon TMS-F microscope and Northern Eclipse Software.

angiogenesis = experiment: Matrigel plug assay (angiogenesis in vivo), hemoglobin content; conditions: Matrigel with heparin and bFGF under the skin of mice, plug removed after one week; 100 μg/ml in the method, 40 μg/ml in the result sentence (FIG. 4B)
Description: The effect of these compounds on angiogenesis was evaluated in vivo using the Matrigel plug assay. Briefly, Matrigel containing heparin and bFGF was injected under the skin of mice in the presence or absence of 100 μg/ml pepCav and pepPgp. The Matrigel plug was removed after one week. Hemoglobin content in the Matrigel plugs, which corresponds to the vessels formed, was measured.

P-gp [3] = biological target: P-gp (Homo sapiens, UniProt P08183)
Chain of P-gp (Homo sapiens, UniProt P08183) (P08183 whole entry): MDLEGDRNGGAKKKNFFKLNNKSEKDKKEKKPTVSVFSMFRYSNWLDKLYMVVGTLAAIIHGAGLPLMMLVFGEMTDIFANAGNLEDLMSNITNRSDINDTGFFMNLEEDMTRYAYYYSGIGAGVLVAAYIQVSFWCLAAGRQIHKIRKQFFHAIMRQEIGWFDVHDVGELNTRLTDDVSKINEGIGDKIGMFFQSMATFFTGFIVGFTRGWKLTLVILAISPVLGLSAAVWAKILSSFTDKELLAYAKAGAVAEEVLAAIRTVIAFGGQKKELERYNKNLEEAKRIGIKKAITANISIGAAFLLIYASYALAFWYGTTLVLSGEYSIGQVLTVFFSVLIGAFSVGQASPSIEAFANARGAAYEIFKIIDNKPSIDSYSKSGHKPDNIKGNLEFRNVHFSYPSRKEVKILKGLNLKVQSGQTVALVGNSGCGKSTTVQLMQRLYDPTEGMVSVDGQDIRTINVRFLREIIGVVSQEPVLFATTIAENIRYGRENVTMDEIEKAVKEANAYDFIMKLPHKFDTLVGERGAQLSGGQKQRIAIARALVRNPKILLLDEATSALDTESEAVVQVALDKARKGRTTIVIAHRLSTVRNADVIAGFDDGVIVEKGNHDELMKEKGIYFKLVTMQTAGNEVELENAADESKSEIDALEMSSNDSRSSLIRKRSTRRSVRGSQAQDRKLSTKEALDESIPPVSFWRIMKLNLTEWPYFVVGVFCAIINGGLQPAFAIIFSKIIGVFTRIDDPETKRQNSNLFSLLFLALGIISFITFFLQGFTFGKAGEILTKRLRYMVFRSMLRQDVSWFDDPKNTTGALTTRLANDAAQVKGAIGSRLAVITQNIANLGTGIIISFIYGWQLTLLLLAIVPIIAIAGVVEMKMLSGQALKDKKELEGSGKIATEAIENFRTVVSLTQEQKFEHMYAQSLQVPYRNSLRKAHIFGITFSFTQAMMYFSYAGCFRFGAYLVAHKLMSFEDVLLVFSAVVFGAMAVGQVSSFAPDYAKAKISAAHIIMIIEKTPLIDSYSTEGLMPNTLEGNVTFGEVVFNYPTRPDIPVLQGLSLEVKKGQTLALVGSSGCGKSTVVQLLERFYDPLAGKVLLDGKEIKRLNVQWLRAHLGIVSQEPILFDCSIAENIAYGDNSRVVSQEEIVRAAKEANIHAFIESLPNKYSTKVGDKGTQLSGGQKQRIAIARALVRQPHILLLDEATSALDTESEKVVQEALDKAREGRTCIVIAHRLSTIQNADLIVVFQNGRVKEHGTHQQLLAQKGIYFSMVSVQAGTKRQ

| Sequence | reduction of [3H]-Taxol in the capillaries and in the parenchyma relative to total brain (P-gp [1]) | reduction of Taxol passage in the total brain vs control mice (P-gp [1]) [%] | inhibition of cell migration of MDCK-MDR1 vs control (MDCK-MDR1 cells) [%] | reduction of capillary-like structure formation [2] [%] | reduction of hemoglobin content in Matrigel plug vs control (bFGF alone) (angiogenesis) [%] | accumulation of [3H]-vinblastine as a function of time (P-gp [3]; MDCK-MDR1 cells, 20 μg/ml peptide, different times following treatment (FIG. 1A)) | [3H]-vinblastine accumulation with increasing concentrations of compound (P-gp [3]; MDCK-MDR1 cells, increasing concentrations (FIG. 1B)) | [3H]-vinblastine accumulation with increasing concentrations of compound (P-gp [3]) |
| --- | --- | --- | --- | --- | --- | --- | --- | --- |
| DGIWKASFTTFTVTKYWFYR [pepCav] | similar | 50 | 80 | 75 | 25 | decreased as a function of time | reduced |  |
| VFSMFRYSNWLDK [pepPgp] | similar | 30 | 30 | 40 | 40 |  |  | reduced |
